# Experimental data published in ChEMBL document CHEMBL1143799, “Synthesis and primary cytotoxicity evaluation of new imidazo[2,1-b]thiazole derivatives” (2007).
# Columns and labels:
# Type in all cases: functional
# CCRF-CEM = assay: Growth inhibition of human CCRF-CEM cells after 48 hrs by SRB protein assay
# A549 = assay: Growth inhibition of human A549 cells after 48 hrs by SRB protein assay; details: A549, 48 h
# EKVX = assay: Growth inhibition of human EKVX cells after 48 hrs by SRB protein assay
# HOP-62 = assay: Growth inhibition of human HOP62 cells after 48 hrs by SRB protein assay; details: HOP-62, 48 h
# NCI-H322M = assay: Growth inhibition of human NCI-H322M cells after 48 hrs by SRB protein assay
# NCI-H460 = assay: Growth inhibition of human NCI-H460 cells after 48 hrs by SRB protein assay; details: NCI-H460, 48 h
# COLO 205 = assay: Growth inhibition of human COLO205 cells after 48 hrs by SRB protein assay; details: COLO 205, 48 h
# HCC 2998 = assay: Growth inhibition of human HCC2998 cells after 48 hrs by SRB protein assay; details: HCC 2998, 48 h
# HCT-116 = assay: Growth inhibition of human HCT116 cells after 48 hrs by SRB protein assay; details: HCT-116, 48 h
# HCT-15 = assay: Growth inhibition of human HCT15 cells after 48 hrs by SRB protein assay; details: HCT-15, 48 h
# HT-29 = assay: Growth inhibition of human HT29 cells after 48 hrs by SRB protein assay; details: HT-29, 48 h
# SW-620 = assay: Growth inhibition of human SW620 cells after 48 hrs by SRB protein assay; details: SW-620, 48 h
# SF-268 = assay: Growth inhibition of human SF268 cells after 48 hrs by SRB protein assay; details: SF-268, 48 h
# SF-539 = assay: Growth inhibition of human SF539 cells after 48 hrs by SRB protein assay; details: SF-539, 48 h
# SNB-19 = assay: Growth inhibition of human SNB19 cells after 48 hrs by SRB protein assay; details: SNB-19, 48 h
# SNB-75 = assay: Growth inhibition of human SNB75 cells after 48 hrs by SRB protein assay; details: SNB-75, 48 h
# U-251 = assay: Growth inhibition human U251 of cells after 48 hrs by SRB protein assay; details: U-251, 48 h
# LOX IMVI = assay: Growth inhibition of human LOX IMVI cells after 48 hrs by SRB protein assay
# M14 = assay: Growth inhibition of human M14 cells after 48 hrs by SRB protein assay; details: M14, 48 h
# SK-MEL-28 = assay: Growth inhibition of human SK-MEL-28 cells after 48 hrs by SRB protein assay; details: SK-MEL-28, 48 h
# UACC-257 = assay: Growth inhibition of human UACC257 cells after 48 hrs by SRB protein assay; details: UACC-257, 48 h
# UACC-62 = assay: Growth inhibition of human UACC62 cells after 48 hrs by SRB protein assay; details: UACC-62, 48 h
# OVCAR-3 = assay: Growth inhibition of human OVCAR-3 cells after 48 hrs by SRB protein assay; details: OVCAR-3, 48 h
# OVCAR-8 = assay: Growth inhibition of human OVCAR8 cells after 48 hrs by SRB protein assay; details: OVCAR-8, 48 h
# SK-OV-3 = assay: Growth inhibition of human SK-OV-3 cells after 48 hrs by SRB protein assay; details: SK-OV-3, 48 h
# [1] = Growth inhibition of human 786O cells after 48 hrs by SRB protein assay; details: 786-0, 48 h
# ACHN = assay: Growth inhibition of human ACHN cells after 48 hrs by SRB protein assay
# CAKI-1 = assay: Growth inhibition of human CAKI1 cells after 48 hrs by SRB protein assay; details: CAKI-1, 48 h
# RXF 393 = assay: Growth inhibition of human RXF393 cells after 48 hrs by SRB protein assay; details: RXF 393, 48 h
# SN12C = assay: Growth inhibition of human SN12C cells after 48 hrs by SRB protein assay
# UO-31 = assay: Growth inhibition of human UO31 cells after 48 hrs by SRB protein assay; details: UO-31, 48 h
# PC-3 = assay: Growth inhibition of human PC3 cells after 48 hrs by SRB protein assay; details: PC-3, 48 h
# DU-145 = assay: Growth inhibition of human DU145 cells after 48 hrs by SRB protein assay; details: DU-145, 48 h
# MCF7 = assay: Growth inhibition of human MCF7 cells after 48 hrs by SRB protein assay; details: MCF7, 48 h
# MDA-MB-231 = assay: Growth inhibition of MDA-MB-231 cells after 48 hrs by SRB protein assay; details: Homo sapiens, MDA-MB-231, 48 h
# Hs-578T = assay: Growth inhibition of human HS578T cells after 48 hrs by SRB protein assay
# SK-MEL-5 = assay: Growth inhibition of human SK-MEL-5 cells after 48 hrs by SRB protein assay; details: SK-MEL-5, 48 h
# BT-549 = assay: Growth inhibition of human BT549 cells after 48 hrs by SRB protein assay; details: BT-549, 48 h
# T47D = assay: Growth inhibition of human T47D cells after 48 hrs by SRB protein assay
# OVCAR-5 = assay: Growth inhibition of human OVCAR5 cells after 48 hrs by SRB protein assay; details: OVCAR-5, 48 h
smiles,measurement,setting,value
COc1cccc(OC)c1/C=N/NC(=O)Cc1csc2nc(-c3ccc(Br)cc3)cn12,GI50,CCRF-CEM,9.55 µM
same,TGI,CCRF-CEM; read-out: Log TGI (converted),> 100 µM
same,GI50,A549,11.5 µM
same,TGI,A549; read-out: Log TGI (converted),38.9 µM
same,GI50,EKVX,17 µM
same,TGI,EKVX; read-out: Log TGI (converted),57.5 µM
same,GI50,HOP-62,13.2 µM
same,TGI,HOP-62; read-out: Log TGI (converted),30.2 µM
same,GI50,NCI-H322M,14.8 µM
same,TGI,NCI-H322M; read-out: Log TGI (converted),61.7 µM
same,GI50,NCI-H460,> 100 µM
same,TGI,NCI-H460; read-out: Log TGI (converted),> 100 µM
same,GI50,COLO 205,35.5 µM
same,TGI,COLO 205; read-out: Log TGI (converted),> 100 µM
same,GI50,HCC 2998,10 µM
same,TGI,HCC 2998; read-out: Log TGI (converted),34.7 µM
same,GI50,HCT-116,4.57 µM
same,TGI,HCT-116; read-out: Log TGI (converted),15.8 µM
same,GI50,HCT-15,7.41 µM
same,TGI,HCT-15; read-out: Log TGI (converted),64.6 µM
same,GI50,HT-29,16.2 µM
same,TGI,HT-29; read-out: Log TGI (converted),> 100 µM
same,GI50,SW-620,6.46 µM
same,TGI,SW-620; read-out: Log TGI (converted),49 µM
same,GI50,SF-268,> 100 µM
same,TGI,SF-268; read-out: Log TGI (converted),> 100 µM
same,GI50,SF-539,11.2 µM
same,TGI,SF-539; read-out: Log TGI (converted),24.5 µM
same,GI50,SNB-19,31.6 µM
same,TGI,SNB-19; read-out: Log TGI (converted),> 100 µM
same,GI50,SNB-75,24 µM
same,TGI,SNB-75; read-out: Log TGI (converted),66.1 µM
same,GI50,U-251,13.8 µM
same,TGI,U-251; read-out: Log TGI (converted),31.6 µM
same,GI50,LOX IMVI,12.6 µM
same,TGI,LOX IMVI; read-out: Log TGI (converted),47.9 µM
same,GI50,M14,15.1 µM
same,TGI,M14; read-out: Log TGI (converted),72.4 µM
same,GI50,SK-MEL-28,41.7 µM
same,TGI,SK-MEL-28; read-out: Log TGI (converted),> 100 µM
same,GI50,UACC-257,24 µM
same,TGI,UACC-257; read-out: Log TGI (converted),97.7 µM
same,GI50,UACC-62,12 µM
same,TGI,UACC-62; read-out: Log TGI (converted),27.5 µM
same,GI50,OVCAR-3,15.8 µM
same,TGI,OVCAR-3; read-out: Log TGI (converted),58.9 µM
same,GI50,OVCAR-8,11.5 µM
same,TGI,OVCAR-8; read-out: Log TGI (converted),38 µM
same,GI50,SK-OV-3,57.5 µM
same,TGI,SK-OV-3; read-out: Log TGI (converted),> 100 µM
same,GI50,[1],26.3 µM
same,TGI,[1]; read-out: Log TGI (converted),> 100 µM
same,GI50,ACHN,17 µM
same,TGI,ACHN; read-out: Log TGI (converted),34.7 µM
same,GI50,CAKI-1,12.6 µM
same,TGI,CAKI-1; read-out: Log TGI (converted),33.9 µM
same,GI50,RXF 393,19.1 µM
same,TGI,RXF 393; read-out: Log TGI (converted),67.6 µM
same,GI50,SN12C,20.9 µM
same,TGI,SN12C; read-out: Log TGI (converted),49 µM
same,GI50,UO-31,60.3 µM
same,TGI,UO-31; read-out: Log TGI (converted),> 100 µM
same,GI50,PC-3,13.5 µM
same,TGI,PC-3; read-out: Log TGI (converted),93.3 µM
same,GI50,DU-145,17.8 µM
same,TGI,DU-145; read-out: Log TGI (converted),47.9 µM
same,GI50,MCF7,29.5 µM
same,TGI,MCF7; read-out: Log TGI (converted),> 100 µM
same,GI50,MDA-MB-231,16.2 µM
same,TGI,MDA-MB-231; read-out: Log TGI (converted),40.7 µM
same,GI50,Hs-578T,11.5 µM
same,TGI,Hs-578T; read-out: Log TGI (converted),45.7 µM
same,GI50,SK-MEL-5,8.91 µM
same,TGI,SK-MEL-5; read-out: Log TGI (converted),42.7 µM
same,GI50,BT-549,12.9 µM
same,TGI,BT-549; read-out: Log TGI (converted),33.9 µM
same,GI50,T47D,40.7 µM
same,TGI,T47D; read-out: Log TGI (converted),> 100 µM
same,GI50,OVCAR-5,50.1 µM
same,TGI,OVCAR-5; read-out: Log TGI (converted),> 100 µM
